Test results from PubChem BioAssay (NCI).
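48-hour exposure; five concentrations; linearly interpolated endpoints. GI50: concentration for 50% inhibition of growth. TGI denotes the concentration required for complete inhibition of growth.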

What was measured:
Experiment in all cases: growth of human tumour cells (NCI), 48 h
MCF7 breast = tested on: MCF7 breast
MOLT-4 leukemia = tested on: MOLT-4 leukemia
SF-295 CNS = tested on: SF-295 CNS
SF-539 CNS = tested on: SF-539 CNS
SK-MEL-2 melanoma = tested on: SK-MEL-2 melanoma
SK-MEL-28 melanoma = tested on: SK-MEL-28 melanoma
TK-10 renal = tested on: TK-10 renal
U251 CNS = tested on: U251 CNS
UACC-62 melanoma = tested on: UACC-62 melanoma
HCT-15 colon = tested on: HCT-15 colon

Row | Structure (SMILES) | GI50 (MCF7 breast) | TGI (MCF7 breast) | GI50 (MOLT-4 leukemia) | TGI (MOLT-4 leukemia) | GI50 (SF-295 CNS) | TGI (SF-295 CNS) | GI50 (SF-539 CNS) | TGI (SF-539 CNS) | GI50 (SK-MEL-2 melanoma) | TGI (SK-MEL-2 melanoma) | GI50 (SK-MEL-28 melanoma) | TGI (SK-MEL-28 melanoma) | GI50 (TK-10 renal) | TGI (TK-10 renal) | GI50 (U251 CNS) | TGI (U251 CNS) | GI50 (UACC-62 melanoma) | TGI (UACC-62 melanoma) | TGI (HCT-15 colon) | GI50 (HCT-15 colon)
1 | COc1ccc(-c2nc3ccc(Cc4ccc5nc(-c6ccc(OC)cc6)[nH]c5c4)cc3[nH]2)cc1 | 0.0254 µM | 0.424 µM | < 0.01 µM | 1.29 µM | 0.0176 µM | 0.364 µM | 0.022 µM | 0.0707 µM | 0.0404 µM | 1.75 µM | 0.252 µM | 2.49 µM | 1.1 µM | 2.32 µM | 0.028 µM | 0.162 µM | 0.0471 µM | 2.19 µM |  | 
2 | O=C(CCCC(=O)Nc1ccc(Cl)cc1Cl)CC(=O)c1ccc2ccccc2c1 |  |  |  | > 100 µM |  | > 100 µM |  | > 100 µM |  | > 100 µM |  | > 100 µM |  | > 100 µM |  | > 100 µM |  | > 100 µM | > 100 µM | 
3 | N#Cc1ccc(Sc2nc3ccccc3[nH]2)cc1 |  |  |  | > 100 µM |  | > 100 µM |  | > 100 µM |  | > 100 µM |  | > 100 µM |  | > 100 µM |  | > 100 µM |  | > 100 µM |  | 
4 | OC(c1ccccc1Br)(c1ccccc1Br)C(F)(F)F |  |  |  | 31.6 µM |  | 38.9 µM |  | > 100 µM |  | 35.5 µM |  | 95.5 µM |  | > 100 µM |  | 34.3 µM |  | 57.7 µM | > 100 µM | 
5 | CC(=O)[CH-]C(=O)c1ccccc1.[C-]#[O+].[C-]#[O+].[Ir] |  |  |  |  | > 100 µM | > 100 µM | > 100 µM | > 100 µM | > 100 µM | > 100 µM | > 100 µM | > 100 µM | > 100 µM | > 100 µM | > 100 µM | > 100 µM | > 100 µM | > 100 µM | > 100 µM | > 100 µM
6 | COCCN(CCOC)c1nc(-c2ccccc2)nc2ccccc12 | 20.6 µM | 55.7 µM | 28.3 µM | > 100 µM | 30.9 µM | > 100 µM | 24.3 µM | 52.9 µM | 19.2 µM | 44.6 µM | 29.2 µM | > 100 µM | 30.7 µM | 78.4 µM | 70.1 µM | > 100 µM | 18.2 µM | 34.9 µM |  | 
7 | CC(=O)OCC(=O)[C@@]1(O)CC[C@H]2[C@@H]3C[C@H](C)C4=CC(=O)C=C[C@]4(C)[C@@]3(F)[C@@H](O)C[C@@]21C |  |  |  | > 100 µM |  | > 100 µM |  | > 100 µM |  | > 100 µM |  | > 100 µM |  | > 100 µM |  | > 100 µM |  | > 100 µM | > 100 µM | 
8 | C[C@H](C(=O)O)C(=O)NC(=O)N(Cc1ccccc1)N=O |  |  |  | > 100 µM |  | > 100 µM |  | > 100 µM |  | > 100 µM |  | > 100 µM |  | > 100 µM |  | > 100 µM |  | > 100 µM | > 100 µM | 
9 | COc1ccc(Nc2cnc3cc(N)cc(N)c3n2)cc1 | 18.4 µM | 40.9 µM | 12.5 µM | > 100 µM | 22.3 µM | 48.7 µM | 17.3 µM | 36.6 µM | 14.4 µM | 32 µM | 21.2 µM | 44.8 µM | 23.7 µM | 76.2 µM | 14.9 µM | 35.5 µM | 14.6 µM | 28.8 µM |  | 
10 | c1ccc(C(c2ccccc2)c2ccccn2)cc1 |  |  |  |  |  | > 100 µM |  | > 100 µM |  | > 100 µM |  | > 100 µM |  | > 100 µM |  | > 100 µM |  | > 100 µM | > 100 µM | 
11 | COc1ccc2c(C(=O)O)cc3ccccc3c2c1OC |  |  |  | > 100 µM |  | > 100 µM |  | 57.7 µM |  | 94.9 µM |  | 33.6 µM |  | 33.2 µM |  | > 100 µM |  | 32.5 µM |  | 
12 | Cc1cccc(Cn2cc(CO)c3cnccc32)c1 | 51.3 µM | > 100 µM |  |  | 12.4 µM | 76.7 µM | > 100 µM | > 100 µM | > 100 µM | > 100 µM | > 100 µM | > 100 µM | 64.7 µM | > 100 µM | 62.5 µM | > 100 µM | 75.4 µM | > 100 µM | > 100 µM | > 100 µM
13 | O=C1C2C3C=CC(C2C(=O)N1CO)C1C2C(=O)N(CO)C(=O)C2C31 (configuration not stated) |  |  |  | > 100 µM |  | > 100 µM |  | > 100 µM |  | > 100 µM |  | > 100 µM |  | > 100 µM |  | > 100 µM |  | > 100 µM | > 62.9 µM | 
14 | COc1ccc2nc(NC(=O)C(=O)CC(=O)c3ccc([N+](=O)[O-])cc3)sc2c1 |  |  |  | > 100 µM |  |  |  | > 100 µM |  | > 100 µM |  | > 100 µM |  |  |  | > 100 µM |  | > 100 µM |  | 
15 | COC(=O)C1=C(C(=O)OC)C2(c3ccccc3)OC1(c1ccccc1)c1cc3ccccc3cc12 |  |  |  | 3.64 µM |  | 19.8 µM |  | 3.03 µM |  | 3.13 µM |  | 3.82 µM |  | 3.56 µM |  | 18.8 µM |  | 4.26 µM | 3.88 µM | 
